The values that follow are results of earlier work, collected in patent publication US12678407B2 (HANMI PHARM. CO., LTD., priority 2020, dated 2026).

The conditions of the data set: according to FDA Clinical Pharmacology Biopharmaceutics Review.

What is called bioavailability is dose-corrected exposure relative to a reference, in per cent. With `CCOc1ccc(Cc2cc([C@@H]3O[C@H](CO)[C@@H](O)[C@H](O)[C@H]3O)ccc2Cl)cc1` [dapagliflozin, (2S,3R,4R,5S,6R)-2-[4-chloro-3-(4-ethoxybenzyl)phenyl]-6-(hydroxymethyl)tetrahydro-2H-pyran-3,4,5-triol], the bioavailability is given as 87%.
For `N[C@@H](CC(=O)N1CCn2c(nnc2C(F)(F)F)C1)Cc1cc(F)c(F)cc1F` [sitagliptin, (R)-3-amino-1-(3-(trifluoromethyl)-5,6-dihydro-[1,2,4]triazole[4,3-a]pyrazin-7(8H)-yl)-4-(2,4,5-trifluorophenyl)butan-1-one], the bioavailability is recorded as 78%.
